Experimental data published in patent US9682938B2, “Pyrazolone derivatives as nitroxyl donors” (Cardioxyl Pharmaceuticals, Inc., priority 2014, dated 2017).
Values joined by “and” are separate entries in the source; they are usually repeats but may differ in a detail not shown here. Equal values may be shown once.

Experiments:
[1] = In vitro plasma stability, human plasma; type: in vitro ADME; settings: male, pH 7.4, 5 μM, 37° C., sampling 0-360 minutes, read-out: T1/2 Human
Procedure, shortened: (§1)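 Pooled plasma at pH 7.4 with sodium heparin or citrate anticoagulant; compound at 5 μM, 37° C with shaking, triplicate samples at 0–360 min. Quenched in acetonitrile/1% formic acid with internal standard; LC-MS/MS peak-area ratios without standard curve; T1/2 from percent remaining.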

normal beagle dogs = test: Pharmacodynamic activity: systolic blood pressure decrease in telemetered dogs after oral dose; type: in vivo, dog; settings: beagle dogs (n=3), single oral dose 30 mg/kg in PEG300, first 2 hr post-dose relative to baseline SBP
Experimental: The effect of certain compounds from Table 1 on blood pressure in freely moving telemetered normal beagle dogs (n=3) after single oral doses was evaluated. The animals were surgically implanted with a pressure transducer equipped telemetry transmitter. The transmitter assembly was secured internally and a fluid-filled catheter was placed into the abdominal aorta to allow for collection of cardiovascular data. To evaluate cardiovascular effects, 3 dogs were given single oral doses of a compound from Table 1 (100% PEG300 in gelatin capsules) at a concentration of 100 mg/mL and at doses of 30 mg/kg. Systemic blood pressure and heart rate were evaluated continuously for 2 hr before and for 24 hr after dosing (results not shown). To compare the pharmacodynamic activity for all tested compounds, the mean systolic blood pressure (SBP) decrease during the first 2 hr post-dose was determined relative to the baseline SBP (30-120 min pre-dose) (Table 6).

[2] = In vitro plasma stability, dog plasma; type: in vitro ADME; settings: male, pH 7.4, 5 μM, 37° C., sampling 0-360 minutes, read-out: T1/2 Dog
Procedure, shortened: as §1

[3] = In vitro plasma stability, rat plasma; type: in vitro ADME; settings: male, pH 7.4, 5 μM, 37° C., sampling 0-360 minutes, read-out: T1/2 Rat
Procedure, shortened: as §1

[4] = Nitroxyl production via 1H NMR protocol using TXPTS (NMR half-lives); type: physicochemical; settings: phosphate buffer containing TXPTS (HNO trap); pH 7.4, 0.25 M phosphate buffer, 5 mM TXPTS, 1 mM compound, 37° C., spectra over 8 hours; read-out: NMR-T1/2
Experimental: The ^1H NMR procedure used was based on an HPLC protocol developed by S. Bruce King and coworkers (Reisz et al., Org. Lett. 11:2719-2721 (2009), Reisz et al., J. Am. Chem. Soc. 133:11675-11685 (2011) and Guthrie et al., J. Org. Chem. 80:1338-1348 (2015)). According to this procedure, the amount of HNO released from a pyrazolone derivative compound was determined by reacting the compound with the triarylphosphine TXPTS and monitoring the resulting aza-ylide formation.
The procedure for determining the amount of HNO released from certain compounds from Table 1 was as follows.
Tris(4,6-dimethyl-3-sulfanatophenyl)phosphine trisodium salt (TXPTS) was of reagent grade and used without further purification. Synthetic TXPTS aza-ylide was obtained through the amidation of TXPTS using hydroxylamine O-sulfonic acid in water (Armstrong et al., Org. Lett. 7:713-716 (2005)). All other materials were of reagent grade and used without further purification.
All ^1H NMR spectra were obtained in an adjusted-to pH 7.4 solution containing 0.25 M phosphate buffer, 0.2 mM of the metal chelator diethylenetriaminepentaacetic acid (“DTPAC”), and 10% D2O on a Bruker Avance 250 MHz FT-NMR spectrometer using a 1 second presaturation pulse to suppress the water signal. To a nitrogen-purged NMR solution (1.00 mL) containing TXPTS (3.3 mg, 5 mM) was added a pyrazolone derivative compound (10 μL of 100 mM in methanol-d4) to give 1 mM as the initial concentration of the pyrazolone derivative compound. The solution was briefly mixed, about 0.5 mL was transferred to a nitrogen-purged NMR tube and an initial ^1H NMR spectrum (time=0) was obtained. Thereafter, the sample was internally incubated at 37° C. and ^1H NMR spectra were collected at regular intervals for 8 hours.
The HNO donating pyrazolone derivative compound, by-product (e.g., (III) in Scheme 1), and TXPTS aza-ylide concentrations, determined from NMR spectra taken over 8 hours, were plotted as a function of time, and each data set was fitted to a single exponential function. The NMR half-lives for the disappearance of the HNO donating pyrazolone derivative compound and the appearance of by-product and TXPTS aza-ylide were determined from the respective plots. […] A control compound, compound 7 disclosed in WO 2013/059194, was also evaluated.

[5] = Solid-state stability at 40° C. and 75% RH (purity by HPLC); type: physicochemical; settings: solid powder; for Solid-state stability, purity by HPLC, 0 Months: 0 Months (initial); for Solid-state stability, purity by HPLC, 1 Month: in % (unit assumed)
Experimental: Solid, powdered samples of certain compounds from Table 1 were sealed in double polyethylene bags and stored at 40° C., 75% relative humidity (“RH”) for up to 3 months. A control compound, compound 7 disclosed in WO 2013/059194, was also tested. Initially and after 1 month, 2 months, and 3 months of storage, the samples were analyzed for purity, as determined by high performance liquid chromatography (“HPLC”). Additionally, certain compounds from Table 1 were admixed at a level of 50% by weight with one of the following excipients before stability testing: lactose, microcrystalline cellulose, or croscarmellose sodium. The resulting admixtures were also stored as described above then analyzed for purity of the pyrazolone derivative component, as determined by HPLC. The HPLC apparatus comprised a quaternary or binary pump, an auto sampler, a thermostated column compartment, and a UV/visible detector. The HPLC measurement conditions were as follows: • Column: Zorbax Eclipse XDB-C18, 2.1×50 mm, 3.5 μm (Agilent Technologies, Santa Clara, Calif.) • Injection Volume: 2 μL • Detection Wavelength: 220 nm • Mobile Phase A: 0.1% by volume formic acid (“FA”) in water • Mobile Phase B: 0.1% by volume FA in acetonitrile • Diluent: About 0.2 mg sample/mL acetonitrile • Gradient:
• Flow Rate: 0.8 mL/min • Column Temperature: 25° C.

SMILES	half-life at 5 μM [1]	Mean SBP decrease (normal beagle dogs)	half-life at 5 μM [2]	half-life at 5 μM [3]	half-life at 1 mM [4]	Solid-state stability, purity by HPLC, 0 Months [5]	Solid-state stability, purity by HPLC, 1 Month [5]	Solid-state stability, purity by HPLC, 2 Months [5]	Solid-state stability, purity by HPLC, 3 Months [5]
CN1N=C(c2ccc(Cl)cc2)C(C)(NO)C1=O (stereo not shown) [Compound 1, 5-(4-chlorophenyl)-4-(hydroxyamino)-2,4-dimethyl-2,4-dihydro-3H-pyrazol-3-one]	84 min	3 mmHg	148 min	80 min	780 min	100%	99.2	99.8%	99.8%
CN1N=C(c2ccccc2Cl)C(C)(NO)C1=O (stereo not shown) [Compound 2, 5-(2-chlorophenyl)-4-(hydroxyamino)-2,4-dimethyl-2,4-ddihydro-3H-pyrazol-3-one]	52 min	2 mmHg	72 min	61 min	50 min	91.2%	<10	< 10%	< 10%
CN1N=C(c2ccccc2F)C(C)(NO)C1=O (stereo not shown) [Compound 3, 5-(2-fluorophenyl)-4-(hydroxyamino)-2,4-dimethyl-2,4-dihydro-3H-pyrazol-3-one]	32 min	28 mmHg	28 min	37 min	237 min				
CC1=NN(C)C(=O)C1(NO)c1ccccc1 (stereo not shown) [Compound 6, 4-(hydroxyamino)-2,5-dimethyl-4-phenyl-2,4-dihydro-3H-pyrazol-3-one]	38 min	22 mmHg	12 min		34 min	99.8%	<10		
CN1N=C(c2ccc(S(C)(=O)=O)cc2)C(C)(NO)C1=O (stereo not shown) [Compound 14, 4-(hydroxyamino)-2,4-dimethyl-5-(4-(methylsulfonyl)phenyl)-2,4-dihydro-3H-pyrazol-3-one]	49 min	13 mmHg	66 min	40 min	379 min	99.3%	97.0 and 61.0	68%	
CN1N=C(c2ccccc2)C(C)(NO)C1=O (stereo not shown) [Compound 15, 4-(hydroxyamino)-2,4-dimethyl-5-phenyl-2,4-dihydro-3H-pyrazol-3-one]	80 min	31 mmHg	100 min	67 min	1000 min	98.3%	<10		
CCO/N=C(\C)C1(NO)C(=O)N(C)N=C1C(C)(C)C (stereo not shown) [Compound 112, 3-tert-Butyl-4-[1-(ethoxyimino)ethyl]-4-(hydroxyamino)-1-methyl-4,5-dihydro-1H-pyrazol-5-one]	10 min	21 mmHg	21 min	19 min					
CN1N=C(C(C)(C)C)C(NO)(c2ccccc2)C1=O (stereo not shown) [Compound 113, 3-tert-Butyl-4-(hydroxyamino)-1-methyl-4-phenyl-4,5-dihydro-1H-pyrazol-5-one]	30 min	18 mmHg	75 min	53 min					
